Results: patent US20140329863A1 (priority 2011, published 2014)
≈ marks a conversion by molar mass, not a printed value. Read-outs that look alike come from different tables or passages of the source.

Legend:
Binding in human plasma = conditions: 1 μM; mean ± SD, n = 3 (warfarin n = 2)
[1] = Hepatic microsomal stability, human; conditions: for half-life at 1 μM: human, pH 7.4
[2] = test system: PrP^Sc in dividing ScN2a-cl3 cells; assay type: cell-based, mouse
[3] = Tolerability / toxicity on repeated dosing in mice
Binding in mouse plasma = conditions: 1 μM; mean ± SD, n = 3 (warfarin n = 2)
[4] = test system: PrP^Sc in nondividing ScN2a-c13 cells; assay type: cell-based, mouse
[5] = Toleration studies in mice
[6] = Multidose (three-day) pharmacokinetics in liquid diet in FVB mice; conditions: FVB, mouse, in vivo, 100 mg/kg/day, Brain concentrations, 3 days, FVB mice
[7] = Hepatic microsomal stability, rat
[8] = Fraction unbound in cell-culture media; assay type: in vitro ADME; conditions: 1 μM; mean ± SD, n = 3
[9] = Hepatic microsomal stability, mouse; conditions: for half-life at 1 μM: CD-1, mouse, pH 7.4
prion-infected mice = conditions: literature reports; cited from earlier work
[10] = Single-dose pharmacokinetics in FVB mice (oral gavage, IV); conditions: female, FVB, mouse, po, 10 mg/kg
Media solubility = assay type: physicochemical; conditions: cell media
Protocol: To evaluate media solubility, two protocols were followed. In the first, solutions were prepared as described above. After overnight equilibration, samples were centrifuged for 30 min, without filtration, and supernatant analyzed by HPLC/UV/VIS with reference to three standards (5, 100, 250 μM). In the second protocol, turbidimetric analysis, dilutions of the compound of interest were prepared in media with target concentrations of 5, 10, 20, 50, 100, 200 and 300 μM. Media without solute was included for background. These solutions were evaluated using a light scattering technique and a Nepheloskan instrument.

PrP^C in T98G cells [11] = assay type: cell-based, human
PrP^C in IMR32 cells [12] = assay type: cell-based, human
[13] = test system: PrP^Sc in dividing ScN2a-c13 cells
IMR32 cells = assay type: cell-based, human
PrP^C in IMR32 cells [14] = assay type: cell-based, human; remark: listed apart in the source
T98G cells = assay: cells; assay type: cell-based, human; conditions: calcein, T98G cells
PrP^C in T98G cells [15] = assay type: cell-based, human; remark: listed apart in the source
[16] = test system: PrP^Sc in nondividing ScN2a-cl3 cells; conditions: previously demonstrated; cited from earlier work
[17] = test system: PrP^Sc in dividing ScN2a-cl3 cells; conditions: previously demonstrated; cited from earlier work

C(=N\Nc1ccc(-c2cnco2)cc1)/c1ccncc1 [Compound B, (E)-5-(4-(2-(pyridin-4-ylmethylene)hydrazinyl)phenyl)oxazole, reference compound]
Unbound (%), Human Plasma (Binding in human plasma): 2.10 ± 1.11% | % remaining after a 60-min incubation, Human ([1]; human liver microsomes): 68% | half-life at 1 μM ([1]; human liver microsomes): > 60 min | EC50 ([2]; Table 29, 2-AMT analogs tested for potency, usually n = 3 or more): 0.246 µM | EC50 ([2]; read-out: EC50, PrP^Sc ELISA in dividing ScN2a-c13 cells): 0.4 µM | dose with lethal toxicity ([3]; administered chronically in vivo for eight days): > 110 mg/kg/day | dose with lethal toxicity ([3]; administered in vivo): ≥ 150 mg/kg/day | tolerated dose ([3]; at least eight days): up to 100 mg/kg/day | brain concentration as multiple of EC50 ([3]; doses up to 100 mg/kg/day for at least eight days): > 10 ×EC50 | Unbound (%), Mouse Plasma (Binding in mouse plasma): 9.06 ± 2.31% | activity on PrP^Sc in nondividing cells (in words) [4]: inactive | Toleration ([5]; 25, 50, 100, and 150 mg/kg for 3 days in liquid rodent diet, FVB mice): All doses were tolerated, with no animals showing lethal toxicity | animals dying ([5]; ≧150 mg/kg/day for 8 days): 2/4 | concentration at 3 days [6]: ~10 µM | half-life at 1 μM ([7]; Sprague-Dawley, rat, […], pH 7.4): > 60 min | % remaining after a 60-min incubation, Rat ([7]; […]): 77% | Unbound (%), Cell-culture Media [8]: 36.5 ± 3.30% | half-life at 1 μM ([9]; mouse liver microsomes): 30 min | Hepatic Extraction Ratio Mouse ([9]; mouse): 0.8 | % remaining after a 60-min incubation, Mouse ([9]; mouse liver microsomes): 29% | effect in prion-infected mice (prion-infected mice): extended the incubation times | Kp ([10]; brain and plasma): 0.5 | bioavailability ([10]; plasma): 25 to 27%

COc1ccc(Nc2nc(-c3ccc(OC)c(OC)c3)cs2)nc1 [IND44, [4-(3,4-Dimethoxy-phenyl)-thiazol-2-yl]-(5-methoxy-pyridin-2-yl)-amine]
% remaining after a 60-min incubation, Human ([1]; human liver microsomes): 48% | half-life at 1 μM ([1]; human liver microsomes): 58 min | half-life at 1 μM ([1]; liver microsomes): 58 min | solubility in media (in words) (Media solubility): lower solubility | solubility (physchem; FaSSIF): < 1 µM | solubility (physchem; cell culture media, plasma or biological fluid): 3 µM (≈ 1.03 µg/mL) | solubility (physchem; pH 2 (HCl) buffer, pH 2, simulated gastric fluid): 1 µM (≈ 0.343 µg/mL) | solubility (physchem; pH 7.4 (phosphate) buffer, pH 7.4, aqueous buffer): < 1 µM | solubility in FaSSIF (in words) (fasted-state simulated intestinal fluid): lower solubility | solubility at pH 2.0 (in words) (pH 2 (HCl) buffer): lower solubility | solubility at pH 7.4 (in words) (pH 7.4 phosphate buffer): lower solubility | t1/2 in min, Rat ([7]; […]): 45 min | % remaining after a 60-min incubation, Rat ([7]; […]): 39% | t1/2 Rat ([7]; rat microsomes): 45 min | half-life at 1 μM ([9]; liver microsomes): 29 min | half-life at 1 μM ([9]; mouse liver microsomes): 29 min | % remaining after a 60-min incubation, Mouse ([9]; mouse liver microsomes): 24%

O=C(O)c1cccc2c1NC(C(=O)O)C1CC=CC21 (stereo not shown) [IND-0001270, 3a, 4,5,9b-tetrahydro-3H cyclopenta[c]quinoline-4,6-dicarboxylic acid]
activity on PrP^C (in words) (PrP^C in T98G cells [11]): active | activity on PrP^Sc in nondividing cells (in words) [4]: active | activity on PrP^C (in words) (PrP^C in IMR32 cells [12]; IMR32 cells): active | antiprion activity (in words) ([13]; dividing ScN2a-c13 cells): active

O=C(Cc1ccc(Br)cc1)NCc1ccccc1 [IND-0061769]
EC50 (PrP^C in T98G cells [11]; read-out: EC50, PrP^C): 1.84 µM | % Inhibition: Calcein (IMR32) (IMR32 cells): 21% | % Inhibition: SPC (IMR32) (PrP^C in IMR32 cells [14]): MW: 304.2 % Inhibition: SPC (IMR32): 46 Calcein: 21 SPC (T98G): 63 Calcein: 38 | EC50 (PrP^C in IMR32 cells [12]; read-out: EC50, PrP^C, IMR32 cells): 2.05 µM | % Inhibition: Calcein (T98G) (T98G cells): 38% | % Inhibition: SPC (T98G) (PrP^C in T98G cells [15]): MW: 304.2 % Inhibition: SPC (IMR32): 46 Calcein: 21 SPC (T98G): 63 Calcein: 38

CCN(CC)CCCC(C)Nc1c2ccc(Cl)cc2nc2ccc(OC)cc12 (stereo not shown) [quinacrine]
Clearance of PrP^Sc in nondividing prion-infected cells [16]: relatively ineffective | PrP^C levels, HTS of FDA-approved drugs (PrP^C in IMR32 cells [12]): lowered | Clearance of PrP^Sc in dividing cells [17]: rapidly clears dividing cells of PrP^Sc | PrP^Sc levels, HTS of FDA-approved drugs ([13]; HTS of 1,700 FDA-approved drugs): lowered | effect in prion-infected mice (prion-infected mice): ineffective
